Measurements reported in patent US20120149708A1, “MODULATORS OF VIRAL TRANSCRIPTION, AND METHODS AND COMPOSITIONS THEREWITH” (George Mason University, priority 2010, published 2012).

Assays:
HIV-1 LTR-CAT reporter = experiment: CAT assay of Tat-mediated transactivation in HCT116 WT and Dicer-/- cells; type: cell-based; settings: HCT116 WT (Dicer) versus Dicer-/-; 48 hrs; Flavopiridol, CR8#13, F07#13 100 nm, 9AA 1000 nm
Experimental: Six hours later, the transfected cells were treated with DMSO, Flavopirodol (100 nm), CR8#13 (100 nm), F07#13 (100 nm), and 9AA (1000 nm). Treated cells were incubated in complete DMEM for 48 hrs at 37° C. Cells were harvested and cell extracts were used for CAT analysis. One tenth the amount of HCT116 Dicer−/−extract compared to HCT116 WT was used for CAT analysis. […] The corresponding bar graphs in A and B show values that represent the percentage of conversion of the [14C] chloramphenicol substrate in the CAT assay.
Various cells lines were transfected with the HIV-1 LTRCAT plasmid and pc-Tat to initiate the LTR transcription, and subsequently subjected to various drug treatments. After 48 hrs, cells were lysed and CAT assays were performed as previously described (Guendel et al, 2009; Van Duyne et al, 2008; Easley et al, 2010).
To evaluate the role on microRNA machinery in inhibition of viral transcription activity, HCT116 colon carcinoma cell lines that either contained a WT Dicer (HCT116 WT) or lacked the Dicer protein (HCT116 Dicer-−/−) were first transfected with the HIV-1 LTR-CAT reporter construct. The HIV-1 LTR transcription was activated with pc-Tat and following incubation for 6 hours was treated with DMSO (negative control), Flavopiridol (positive control), CR8#13, F07#13, or 9AA.
Cells were harvested 48 hrs-post treatment and processed for CAT assays (FIGS. 3A and B). […] Based on this observation the inventors hypothesize that the microRNA machinery, Dicer and Drosha, plays an inhibitory role in HIV-1 transcription.

TAR microRNA = experiment: RNase protection assay for TAR and TAR miRNA in TNF treated ACH2 cells; type: cell-based, HIV-1; settings: CR8#13 50 nm compared to Flavopiridol 50 nm, 48 hrs
Excerpt: Ten micrograms of total RNA from TNF treated CEM (lane 1) and TNF treated ACH2 cells (lanes 2-6) were hybridized to a radiolabeled TAR 5′ probe and then treated with RNase A. Arrows indicate the probe protected by TAR at 27 nucleotides and the probe protected by a TAR miRNA at approximately 22 nt. Cyc202 concentration at 500 nm, CR8 at 100 nm, CR8#13 at 50 nm, and Flavopiridol at 50 nm were used for these experiments.
Total RNA was extracted from TNF-treated CEM and ACH2 cells follow by drug treatment with Cyc202 (500 nm), CR8 ([…]), CR8#13 (50 nm), and Flavopiridol (50 nm) for 48 hrs using Trizol reagent (Invitrogen). RNase protection assays were performed as previously described (Klase et al, 2007).
RNA polymerase II associated with HIV-1 promoter, however, is phosphorylated on both Ser2 and 5 in the presence of Tat (see Zhou et al, 2004). In order to ascertain whether or not cells treated with CDK inhibitors according to the present invention produce additional TAR derived miRNA, the inevntor utilized RNase protection assays to detect small RNA fragments corresponding to the TAR sequence.
Briefly, a probe complementary to the entire length of the 5′ portion of the TAR stem loop was designed, which would detect the generation of ˜21 nt RNAs from any position within that sequence. […]

3′TAR and 5′TAR microRNA = experiment: Poly-A RT-PCR of TAR microRNA in ACH2 cells; type: cell-based, HIV-1; settings: CR8#13 100 nm, 48 hrs
Experimental: RNA was extracted 48 hrs-post drug treatment. 500 ng of RNA from the microRNA-enriched fraction was used to generate cDNA using the Quantimir kit (SBI). RT reactions are performed followed by PCR in which a universal reverse primer is provided by the manufacturer. Specific microRNA forward primers are identical in sequence to the microRNA of interest. PCR products corresponding to the amplified microRNAs were resolved in a 3.5% (w/v) agarose gel. The PCR products are at around 67 bp as compared with the Fermentas 1 kb DNA Plus Ladder. Increased amounts of 3′ and 5′ TAR microRNA were observed post drug treatment.
For poly-A RT-PCR detection of microRNAs, 500 ng of RNA from the microRNA-enriched fraction was used to generate cDNA using the Quantimir kit (SBI) according to the manufacturer's protocol. Briefly, small RNA species are poly-adenylated and then reverse transcription reactions are performed with a company-provided RT primer. For PCR, a universal reverse primer is provided by the manufacturer. Specific microRNA forward primers are identical in sequence to the microRNA of interest. PCR products corresponding to the amplified microRNAs were separated in a 3.5% (w/v) agarose gel and quantified using the Kodak 1D software. […]

integrated HIV-1-Luc = experiment: Luciferase assay in TSA treated TZM-bl cells; type: cell-based; settings: TSA and CR8#13 versus TSA alone
Experimental: Luciferase activity increased with TSA treatment and then decreased post-CR8#13 treatment.
To observe the effect of drug on heterochrmatin formation, the present inventor used a ChIP assay. Briefly, TZM-bl cells were treated with TSA (FIGS. 16 and 17), and then treated with CR8#13.

HIV-1 = experiment: Viral inhibition (HIV-1); type: cell-based; settings: versus Cyc202

Row | SMILES | inhibition of viral transcription (CAT) (HIV-1 LTR-CAT reporter) | levels of TAR and miTAR RNA (RPA) (TAR microRNA) | 5′TAR microRNA levels (3′TAR and 5′TAR microRNA) | Luciferase activity (integrated HIV-1-Luc) | potency relative to Cyc202 (viral inhibition) (HIV-1)
1 | CC(C)c1cnn2c(NCc3ccc(-c4ccccn4)cc3)nc(NC[C@H](O)CO)nc12.O=C(O)/C=C/C(=O)O [BJFP1154] | inhibited viral transcription significantly better in cells that contained Dicer | Higher levels of TAR and miTAR RNA | increase in the 5′TAR microRNA levels | decrease Luciferase activity | –
2 | CC[C@@H](CO)Nc1nc(NCc2ccc(-c3ccccn3)cc2)c2ncn(C(C)C)c2n1 [CR8] | – | – | – | – | roughly 25 times
